In patent US20070049564A1 (Wyeth, priority 2005, published 2007):
Values after ≈ are worked out from the molar mass of the structure shown. Read-outs that look alike come from different tables or passages of the source.

Key:
E. coli GC 4559 = assay: MIC, broth microdilution; details: Escherichia coli
E. faecium GC 4556 = assay: MIC, broth microdilution; details: Enterococcus faecium
S. aureus GC 2216 = assay: MIC, broth microdilution; details: Staphylococcus aureus
Staph. = assay: Range of MIC for Staph. strains, including MRSA; details: Staphylococcus aureus, MRSA
E. coli = assay: Range of MIC for E. coli strains; details: Escherichia coli
S. pyogenes GC 4563 = assay: MIC, broth microdilution; details: Streptococcus pyogenes
S. typhimurium GC 2172 = assay: MIC, broth microdilution; details: Salmonella enterica, TYPHIMURIUM
S. agalactiae GC 4564 = assay: MIC, broth microdilution; details: Streptococcus agalactiae
E. faecalis GC 4555 = assay: MIC, broth microdilution; details: Enterococcus faecalis
E. coli GC 2231 = assay: MIC, broth microdilution; details: Escherichia coli
S. pneumoniae* GC 4465 = assay: MIC, broth microdilution; details: Streptococcus pneumoniae
E. coli GC 2235 = assay: MIC, broth microdilution; details: Escherichia coli
S. aureus GC 6466 = assay: MIC, broth microdilution; details: Staphylococcus aureus
E. faecalis GC 2242 = assay: MIC, broth microdilution; details: Enterococcus faecalis
E. coli GC 2232 = assay: MIC, broth microdilution; details: Escherichia coli
E. coli GC 2234 = assay: MIC, broth microdilution; details: Escherichia coli
S. aureus GC 4536 = assay: MIC, broth microdilution; details: Staphylococcus aureus
E. coli GC 2236 = assay: MIC, broth microdilution; details: Escherichia coli
S. pneumoniae+ GC 4465 = assay: MIC, broth microdilution; details: Streptococcus pneumoniae
Staph. aureus Smith = assay: In vivo activity (oral, iv; ED50) against Staph. aureus Smith in mice
[1] = read-out: MINIMAL INHIBITORY CONCENTRATION MIC, pre-incubated in Mouse Serum
[2] = read-out: MINIMAL INHIBITORY CONCENTRATION MIC, pre-incubated in Water

MIC (E. coli GC 4559; GC4559, read-out: MINIMAL INHIBITORY CONCENTRATION MIC, pre-incubated in Mouse Serum): 2 µg/mL (≈ 2.53 µM)
MIC (E. coli GC 4559; GC4559, read-out: MINIMAL INHIBITORY CONCENTRATION MIC, pre-incubated in Water): > 64 µg/mL
MIC (E. faecium GC 4556; GC4556, read-out: MINIMAL INHIBITORY CONCENTRATION MIC, pre-incubated in Mouse Serum): 2 µg/mL (≈ 2.53 µM)
MIC (E. faecium GC 4556; GC4556, read-out: MINIMAL INHIBITORY CONCENTRATION MIC, pre-incubated in Water): 64 µg/mL (≈ 80.8 µM)
MIC (S. aureus GC 2216; GC2216, read-out: MINIMAL INHIBITORY CONCENTRATION MIC, pre-incubated in Mouse Serum): 1 µg/mL (≈ 1.26 µM)
MIC (S. aureus GC 2216; GC2216, read-out: MINIMAL INHIBITORY CONCENTRATION MIC, pre-incubated in Water): 4 µg/mL (≈ 5.05 µM)
MIC (Staph.; read-out: Minimum inhibitory concentration (MIC), Staph. (mouse serum)): 0.5 to 4 µg/mL (≈ 0.631 to 5.05 µM)
MIC (Staph.; read-out: Range of MIC, Staph (Mouse Serum)): 0.5 to 4 µg/mL (≈ 0.631 to 5.05 µM)
MIC (E. coli; 20 h, read-out: Range of MIC, E. coli (Mouse Serum)): 1 to 8 µg/mL (≈ 1.26 to 10.1 µM)
MIC (E. coli; read-out: Minimum inhibitory concentration (MIC), E. coli (mouse serum)): 1 to 8 µg/mL (≈ 1.26 to 10.1 µM)
MIC (E. coli; read-out: Minimum inhibitory concentration (MIC), E. coli (water)): > 64 µg/mL
MIC (E. coli; read-out: Range of MIC, E. coli (Water)): > 64 µg/mL
MIC (S. pyogenes GC 4563; GC4563, read-out: MINIMAL INHIBITORY CONCENTRATION MIC, pre-incubated in Mouse Serum): 0.5 µg/mL (≈ 0.631 µM)
MIC (S. pyogenes GC 4563; GC4563, read-out: MINIMAL INHIBITORY CONCENTRATION MIC, pre-incubated in Water): 1 µg/mL (≈ 1.26 µM)
MIC (S. typhimurium GC 2172; [1]): 8 µg/mL (≈ 10.1 µM)
MIC (S. typhimurium GC 2172; [2]): > 64 µg/mL
MIC (S. agalactiae GC 4564; GC4564, read-out: MINIMAL INHIBITORY CONCENTRATION MIC, pre-incubated in Mouse Serum): 1 µg/mL (≈ 1.26 µM)
MIC (S. agalactiae GC 4564; GC4564, read-out: MINIMAL INHIBITORY CONCENTRATION MIC, pre-incubated in Water): 8 µg/mL (≈ 10.1 µM)
MIC (E. faecalis GC 4555; GC4555, read-out: MINIMAL INHIBITORY CONCENTRATION MIC, pre-incubated in Mouse Serum): 2 µg/mL (≈ 2.53 µM)
MIC (E. faecalis GC 4555; GC4555, read-out: MINIMAL INHIBITORY CONCENTRATION MIC, pre-incubated in Water): 64 µg/mL (≈ 80.8 µM)
MIC (E. coli GC 2231; GC2231, read-out: MINIMAL INHIBITORY CONCENTRATION MIC, pre-incubated in Mouse Serum): 2 µg/mL (≈ 2.53 µM)
MIC (E. coli GC 2231; GC2231, read-out: MINIMAL INHIBITORY CONCENTRATION MIC, pre-incubated in Water): > 64 µg/mL
MIC (S. pneumoniae* GC 4465; [1]): 0.5 µg/mL (≈ 0.631 µM)
MIC (S. pneumoniae* GC 4465; [2]): 1 µg/mL (≈ 1.26 µM)
MIC (E. coli GC 2235; GC2235, read-out: MINIMAL INHIBITORY CONCENTRATION MIC, pre-incubated in Mouse Serum): 1 µg/mL (≈ 1.26 µM)
MIC (E. coli GC 2235; GC2235, read-out: MINIMAL INHIBITORY CONCENTRATION MIC, pre-incubated in Water): > 64 µg/mL
MIC (S. aureus GC 6466; GC6466, read-out: MINIMAL INHIBITORY CONCENTRATION MIC, pre-incubated in Mouse Serum): 0.5 µg/mL (≈ 0.631 µM)
MIC (S. aureus GC 6466; GC6466, read-out: MINIMAL INHIBITORY CONCENTRATION MIC, pre-incubated in Water): 2 µg/mL (≈ 2.53 µM)
MIC (E. faecalis GC 2242; GC2242, read-out: MINIMAL INHIBITORY CONCENTRATION MIC, pre-incubated in Mouse Serum): 2 µg/mL (≈ 2.53 µM)
MIC (E. faecalis GC 2242; GC2242, read-out: MINIMAL INHIBITORY CONCENTRATION MIC, pre-incubated in Water): 32 µg/mL (≈ 40.4 µM)
MIC (E. coli GC 2232; GC2232, read-out: MINIMAL INHIBITORY CONCENTRATION MIC, pre-incubated in Mouse Serum): 2 µg/mL (≈ 2.53 µM)
MIC (E. coli GC 2232; GC2232, read-out: MINIMAL INHIBITORY CONCENTRATION MIC, pre-incubated in Water): > 64 µg/mL
MIC (E. coli GC 2234; GC2234, read-out: MINIMAL INHIBITORY CONCENTRATION MIC, pre-incubated in Mouse Serum): 1 µg/mL (≈ 1.26 µM)
MIC (E. coli GC 2234; GC2234, read-out: MINIMAL INHIBITORY CONCENTRATION MIC, pre-incubated in Water): > 64 µg/mL
MIC (S. aureus GC 4536; GC4536, read-out: MINIMAL INHIBITORY CONCENTRATION MIC, pre-incubated in Mouse Serum): 1 µg/mL (≈ 1.26 µM)
MIC (S. aureus GC 4536; GC4536, read-out: MINIMAL INHIBITORY CONCENTRATION MIC, pre-incubated in Water): 2 µg/mL (≈ 2.53 µM)
MIC (E. coli GC 2236; GC2236, read-out: MINIMAL INHIBITORY CONCENTRATION MIC, pre-incubated in Mouse Serum): 2 µg/mL (≈ 2.53 µM)
MIC (E. coli GC 2236; GC2236, read-out: MINIMAL INHIBITORY CONCENTRATION MIC, pre-incubated in Water): > 64 µg/mL
MIC (S. pneumoniae+ GC 4465; [1]): 4 µg/mL (≈ 5.05 µM)
MIC (S. pneumoniae+ GC 4465; [2]): 16 µg/mL (≈ 20.2 µM)
Structure (SMILES): CCCCN(CC(=O)Nc1cc(N(C)C)c2c(c1O)C(=O)C1=C(O)[C@]3(O)C(=O)C(C(N)=O)=C(O)[C@@H](N(C)C)[C@@H]3C[C@@H]1C2)C(=O)OCOC(=O)c1cc(C)cc(C)c1 [Example 22, ({[(2-{[(5aR,6aS,7S,10aS)-9-(aminocarbonyl)-4,7-bis(dimethylamino)-1,8,10a,11-tetrahydroxy-10,12-dioxo-5,5a,6,6a,7,10,10a,12-octahydrotetracen-2-yl]amino}-2-oxoethyl)(butyl)amino]carbonyl}oxy)methyl 3,5-dimethylbenzoate]
ED50 (Staph. aureus Smith; Staphylococcus aureus, in Mus musculus, po, read-out: ED50 Staph Smith SOD): 18.8 mg/kg
ED50 (Staph. aureus Smith; iv, read-out: ED50 Staph Smith SIV): 0.43 mg/kg
